Assay [1] relates to human hair follicle dermal papilla cells. Put plainly: MTT cell proliferation / survival rate in human hair follicle dermal papilla cells. The assay is classed as cell-based. The note with it: 24 h. The procedure: (§1) All of the tests were performed after obtaining approval of Ethics Commission of Medical College, Kyungpook National University. As samples of hairs, hairs in intact state were collected from scalps in the backs of the heads of male hair transplant patients. All of the hair samples were used with the consent of hair transplant patient who provides the samples. The area of subcutaneous fat of scalp including a hair follicle was isolated from the hair sample, and then the hair follicle was isolated by using a binocular microscope. In order to obtain hair papilla cells, the hair papilla was isolated from the hair follicle, and then shifted to a dish that was coated with bovine type I collagen. Then, the hair papilla in the dish was cultured (in an incubator at 37° C. and 5% CO2) in a DEME (Gibco BRL, Gaithersburg. Md., USA) medium including 20% heat inactivated fetal bovine serum including penicillin (100 U/mL) and streptomycin ([…]). […]
(§2) It was investigated whether or not the hydroxydihydrobovolide compound according to the present invention has an effect on cell proliferation in hair follicle cells and cells in the outer root sheath, in which the cells were closely associated with hair growth. […] After 30 minutes, absorbance of the cells was measured (570 nm).

In assay [2] the test system is hair outer root sheath cells. The assay can be described thus: MTT cell proliferation / survival rate in hair outer root sheath cells. It counts as cell-based, human. The note with it: 24 h. The procedure: as §1, §2
The subject of assay [3] is human hair tissues. The assay can be described thus: Evaluation of hair growth using human hair tissue culture. The assay is classed as cell-based. The conditions noted are these: 5 μM. As for the experimental part: The human hair tissues were supplied from an immunology laboratory in Kyungpook National University. The human hair tissues were cultured in an incubator at 37° C. and CO2 by using Williams E media (Sigma, USA) including 2 mM L-glutamin, 100 U/mL of streptomycin, and 10 ng/ml of hydrocortisone. The test materials with various concentrations were cultured for 6 days, and the lengths of hairs were measured on the third days and sixth day.

Entries after “also recorded” stand apart in the source; their conditions may differ.

As for `CCCCCC1(O)OC(=O)C(C)=C1C` (stereo not drawn) [hydroxydihydrobovolide, 5-hydroxy-3,4-dimethyl-5-pentylfuran-2(5H)-one], the “cell proliferation increased by” value is reported as 144% in assay [1] (0.05 μM, vs untreated control group, p<0.05) and 156% in assay [2] (0.5 μM, vs control group, highest effect). Also, the “effect on cell proliferation compared with control group” value in assay [1] (0.005 to 0.5 μM) was “significant cell proliferation effect; also recorded: significant effects on cell proliferation”. Besides, in assay [2] (0.005 to 0.5 μM), the “cell proliferation compared with control group” value is “significantly higher cell proliferation rate than the control group; also recorded: significantly higher than that of the control group”. The “length of hair on the third day” value in assay [3] (day 3 of culture) amounted to 0.62 mm. Moreover, the “length of hair on the sixth day” value in assay [3] (day 6 of culture) is on record as 1.38 mm.
